Measured values: patent US20090076044A1, “VEGFR INHIBITORS CONTAINING A ZINC BINDING MOIETY” (priority 2007, published 2009)
Like-named read-outs stand apart in the source and are kept apart here.

Legend:
Format in all cases: biochemical
human EGFR = target: T1, human EGFR (Homo sapiens, UniProt P00533); test: EGFR kinase assay (HTScan EGF Receptor Kinase Assay Kit, DELFIA); details: 200 μM ATP
T1 construct: human EGFR (His672-Ala1210); purchased Cell Signaling Technologies; host or cells: baculovirus expression system
T1 sequence (P00533 672-1210): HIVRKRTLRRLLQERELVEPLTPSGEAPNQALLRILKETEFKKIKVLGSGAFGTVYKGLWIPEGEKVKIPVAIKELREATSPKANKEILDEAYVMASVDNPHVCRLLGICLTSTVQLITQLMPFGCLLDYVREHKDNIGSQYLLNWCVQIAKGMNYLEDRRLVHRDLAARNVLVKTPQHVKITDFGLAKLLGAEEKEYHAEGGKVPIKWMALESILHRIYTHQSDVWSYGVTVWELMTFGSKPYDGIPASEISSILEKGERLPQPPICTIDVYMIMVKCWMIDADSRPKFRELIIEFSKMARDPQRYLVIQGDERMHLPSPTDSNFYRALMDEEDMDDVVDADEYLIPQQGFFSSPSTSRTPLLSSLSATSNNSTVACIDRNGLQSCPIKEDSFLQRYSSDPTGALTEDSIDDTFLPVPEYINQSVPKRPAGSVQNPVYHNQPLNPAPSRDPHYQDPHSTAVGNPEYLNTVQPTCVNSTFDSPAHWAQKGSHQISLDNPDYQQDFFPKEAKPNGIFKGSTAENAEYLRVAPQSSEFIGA
Description: (e) An In Vitro Assay which Determines the Ability of a Test Compound to Inhibit EGFR Kinase.
The ability of compounds to inhibit receptor kinase (EGFR) activity was assayed using HTScan™ EGF Receptor Kinase Assay Kits (Cell Signaling Technologies, Danvers, Mass.). EGFR tyrosine kinase was obtained as GST-kinase fusion protein which was produced using a baculovirus expression system with a construct expressing human EGFR (His672-Ala1210) (GenBank Accession No. NM_005228) with an amino-terminal GST tag. The protein was purified by one-step affinity chromatography using glutathione-agarose. An anti-phosphotyrosine monoclonal antibody, P-Tyr-100, was used to detect phosphorylation of biotinylated substrate peptides (EGFR), Biotin-PTP1B (Tyr66). Enzymatic activity was tested in 60 mM HEPES, 5 mM MgCl2 5 mM MnCl2 200 μM ATP, 1.25 mM DTT, 3 μM Na3VO4, 1.5 mM peptide, and 50 ng EGF Receptor Kinase. Bound antibody was detected using the DELFIA system (PerkinElmer, Wellesley, Mass.) consisting of DELFIA® Europium-labeled Anti-mouse IgG (PerkinElmer, #AD0124), DELFIA® Enhancement Solution (PerkinElmer, #1244-105), and a DELFIA® Streptavidin coated, 96-well Plate (PerkinElmer, AAAND-0005). Fluorescence was measured on a WALLAC Victor 2 plate reader and reported as relative fluorescence units (RFU). Data were plotted using GraphPad Prism (v4.0a) and IC50's calculated using a sigmoidal dose response curve fitting algorithm.
Test compounds were dissolved in dimethylsulfoxide (DMSO) to give a 20 mM working stock concentration. Each assay was setup as follows: Added 100 μl of 10 mM ATP to 1.25 ml 6 mM substrate peptide. Diluted the mixture with dH2O to 2.5 ml to make 2×ATP/substrate cocktail ([ATP]=[…], [substrate]=3 mM). Immediately transfer enzyme from −80° C. to ice. Allowed enzyme to thaw on ice. Microcentrifuged briefly at 4° C. to bring liquid to the bottom of the vial. Returned immediately to ice. Added 10 μl of DTT (1.25 mM) to 2.5 ml of 4× HTScan™ Tyrosine Kinase Buffer (240 mM HEPES pH 7.5, 20 mM MgCl2, 20 mM MnCl, 12 mM NaVO3) to make DTT/Kinase buffer. Transfer 1.25 ml of DTT/Kinase buffer to enzyme tube to make 4× reaction cocktail ([enzyme]=4 ng/μL in 4× reaction cocktail). Incubated 12.5 μl of the 4× reaction cocktail with 12.5 μl/well of prediluted compound of interest (usually around 10 μM) for 5 minutes at room temperature. Added 25 μl of 2×ATP/substrate cocktail to 25 μl/well preincubated reaction cocktail/compound. Incubated reaction plate at room temperature for 30 minutes. Added 50 μl/well Stop Buffer (50 mM EDTA, pH 8) to stop the reaction. Transferred 25 μl of each reaction and 75 μl dH2O/well to a 96-well streptavidin-coated plate and incubated at room temperature for 60 minutes. Washed three times with 200 μl/well PBS/T (PBS, 0.05% Tween-20). Diluted primary antibody, Phospho-Tyrosine mAb (P-Tyr-100), 1:1000 in PBS/T with 1% bovine serum albumin (BSA). Added 100 μl/well primary antibody. Incubated at room temperature for 60 minutes. Washed three times with 200 μl/well PBS/T. Diluted Europium labeled anti-mouse IgG 1:500 in PBS/T with 1% BSA. Added 100 μl/well diluted antibody. Incubated at room temperature for 30 minutes. Washed five times with 200 μl/well PBS/T. Added 100 μl/well DELFIA® Enhancement Solution. Incubated at room temperature for 5 minutes. Detected 615 nm fluorescence emission with appropriate Time-Resolved Plate Reader.

human HER2 = target: T2, human HER2 (Homo sapiens, UniProt P04626); test: HER2 enzymatic activity assay
T2 construct: human HER2 amino acids 679-1255; host or cells: Sf9 insect cells (baculovirus)
T2 sequence (P04626 679-1255): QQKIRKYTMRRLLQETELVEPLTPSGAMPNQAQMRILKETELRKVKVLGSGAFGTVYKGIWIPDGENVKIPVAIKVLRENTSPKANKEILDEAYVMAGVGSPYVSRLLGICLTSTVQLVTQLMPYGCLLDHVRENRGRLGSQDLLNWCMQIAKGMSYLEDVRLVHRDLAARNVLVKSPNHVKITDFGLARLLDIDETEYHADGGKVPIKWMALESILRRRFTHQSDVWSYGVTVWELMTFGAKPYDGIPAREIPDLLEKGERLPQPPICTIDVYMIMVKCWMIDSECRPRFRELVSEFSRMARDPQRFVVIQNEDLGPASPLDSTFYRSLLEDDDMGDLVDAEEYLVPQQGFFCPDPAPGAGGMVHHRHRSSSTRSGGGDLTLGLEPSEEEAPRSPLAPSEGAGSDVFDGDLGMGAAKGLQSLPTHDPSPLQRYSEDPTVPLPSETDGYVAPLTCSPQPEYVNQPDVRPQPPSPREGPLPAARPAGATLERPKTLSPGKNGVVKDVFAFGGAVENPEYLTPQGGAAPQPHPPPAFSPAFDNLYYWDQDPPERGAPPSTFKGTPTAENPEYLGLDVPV
Description: (d) An In Vitro Assay which Determines the Ability of a Test Compound to Inhibit HER2 Enzymatic Activity.
10 nM HER2 and 0.1 mg/ml polyEY were placed in the reaction buffer and 2 mM MnCl2, 1 μM ATP and 1% DMSO final were added. The reaction mixture was incubated for 2 hours at room temperature.
Purity>90% by SDS PAGE and Coomassie blue staining. MW=91.6 kDa. Specific Activity of 40 U/mg, where one unit of activity is defined as 1 nmol phosphate incorporated into 30 ug/ml Poly (Glu:Tyr)4:1 substrate per minute at 30° C. with a final ATP concentration of 100 μM. Enzyme is in 25 mM Tris-HCl, pH 8.0, 100 mM NaCl, 0.05% Tween-20, 50% glycerol, 10 mM reduced glutathione, and 3 mM DTT.

human VEGFR2 = target: T3, human VEGFR2 (Homo sapiens, UniProt P35968); test: VEGFR2/KDR radioisotope kinase assay
T3 construct: kinase domain (amino acids 790 to end) fragment; 6xHis (N); made in house; host or cells: Sf21 insect cells (baculovirus)
T3 sequence (P35968 790-1356 limits assumed): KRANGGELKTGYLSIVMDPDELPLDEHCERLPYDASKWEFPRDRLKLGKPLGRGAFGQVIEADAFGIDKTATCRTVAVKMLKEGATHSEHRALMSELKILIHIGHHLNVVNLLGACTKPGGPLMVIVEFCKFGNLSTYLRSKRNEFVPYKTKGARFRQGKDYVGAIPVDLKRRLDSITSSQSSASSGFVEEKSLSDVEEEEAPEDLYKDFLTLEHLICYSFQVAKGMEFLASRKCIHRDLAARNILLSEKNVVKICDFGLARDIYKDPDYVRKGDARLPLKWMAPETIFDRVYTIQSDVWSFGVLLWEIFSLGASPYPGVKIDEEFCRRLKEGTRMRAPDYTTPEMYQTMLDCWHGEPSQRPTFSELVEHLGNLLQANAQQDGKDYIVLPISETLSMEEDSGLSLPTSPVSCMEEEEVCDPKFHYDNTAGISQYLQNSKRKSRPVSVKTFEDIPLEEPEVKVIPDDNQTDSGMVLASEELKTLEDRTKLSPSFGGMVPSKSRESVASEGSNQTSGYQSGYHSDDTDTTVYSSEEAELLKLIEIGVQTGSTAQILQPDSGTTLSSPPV
Description: (a) An In Vitro Assay which-Determines the Ability of a Test Compound to Inhibit a Receptor Tyrosine Kinase.
The ability of compounds to inhibit receptor kinase (VEGFR2 and PDGFR-beta) activity was assayed using standard radioisotope assay for kinase. […] The proteins were purified using Ni2+/NTA agarose affinity column to purity
>85% as determined by coomassie blue-stained SDS-PAGE gel. For VEGFR2/KDR assay, p33 ATP tracers were incubated with purified recombinant VEGFR2 kinase to monitor the enzyme activity. In this assay, reactions were carried out in the presence of 0.1 mg/ml VEGFR2 kinase and 0.33 mg/ml myelin basic protein. The reaction was carried out at 30° C. for 120 minutes in a final assay condition contained 50 mM Tris-HCl, pH 7.5, 300 mM NaCl, 0.1 mM EGTA, 0.03% Brij 35, 270 mM sucrose, 1 mM benzamidine, 0.2 mM PMSF, 0.1% 2-mercaptoethanol and 100 μM ATP. An equal volume of 25% TCA was added to stop the reaction and precipitate the labeled proteins. Precipitated proteins were trapped onto glass fiber B filterplates and excess unlabeled p33 ATP was washed off. The plates were allowed to air-dry prior to the addition of 30 uL/well of Packard Microscint 20. The amount of incorporated isotope was measured using a Perkin Elmer TopCount plate reader. Different concentrations of compounds were added to reaction to assess the activity of compounds to inhibit VEGFR2 kinase. IC50 was calculated using Prism software with sigmoidal dose-response curve fitting.

[1] = 1 μM ATP, read-out: HER2/ErbB IC50
[2] = 100 μM ATP, read-out: VEGFR2 IC50

Compound	IC50 (human EGFR) [nM]	IC50 (human HER2; [1]) [nM]	IC50 (human VEGFR2; [2]) [nM]	IC50 (human HER2) [nM]	IC50 (human VEGFR2) [nM]
COc1cc2ncnc(Nc3ccc4occc4c3)c2cc1OCCCCCCC(=O)NO [Compound 2, 7-(4-(benzofuran-5-ylamino)-7-methoxyquinazolin-6-yloxy)-N-hydroxyheptanamide]	< 100	< 100	1000 to 10000	–	–
COc1cc2c(Oc3ccc4[nH]c(C)cc4c3F)ncnc2cc1OCCCCCC(=O)NO [Compound 10, 6-(4-(4-fluoro-2-methyl-1H-indol-5-yloxy)-6-methoxyquinazolin-7-yloxy)-N-hydroxyhexanamide]	100 to 1000	100 to 1000	< 100	–	–
COc1cc2c(Oc3ccc4[nH]c(C)cc4c3F)ncnc2cc1OCCCCCCC(=O)NO [Compound 11, 7-(4-(4-fluoro-2-methyl-1H-indol-5-yloxy)-6-methoxyquinazolin-7-yloxy)-N-hydroxyheptanamide]	1000 to 10000	–	–	1000 to 10000	< 100
COc1cc2c(Nc3ccc4[nH]c(C)cc4c3F)ncnc2cc1OCCCCCC(=O)NO [Compound 13, 6-(4-(4-fluoro-2-methyl-1H-indol-5-ylamino)-6-methoxyquinazolin-7-yloxy)-N-hydroxyhexanamide]	100 to 1000	< 100	< 100	–	–
COc1cc2c(Nc3ccc4[nH]c(C)cc4c3F)ncnc2cc1OCCCCCCC(=O)NO [Compound 14, 7-(4-(4-fluoro-2-methyl-1H-indol-5-ylamino)-6-methoxy-quinazolin-7-yloxy)-N-hydroxyheptanamide]	< 100	100 to 1000	< 100	–	–
Cc1cc2c(F)c(Oc3ncnc4cc(OCCCN5CCCC5)c(OCCCCCC(=O)NO)cc34)ccc2[nH]1 [Compound 16, 6-(4-(4-fluoro-2-methyl-1H-indol-5-yloxy)-7-(3-(pyrrolidin-1-yl)propoxy)quinazolin-6-yloxy)-N-hydroxyhexanamide]	1000 to 10000	< 100	< 100	–	–

Now from value to compound:

IC50 (human EGFR) [nM]	IC50 (human HER2; [1]) [nM]	IC50 (human VEGFR2; [2]) [nM]	IC50 (human HER2) [nM]	IC50 (human VEGFR2) [nM]	Compound
1000 to 10000	100 to 1000	< 100	–	–	Cc1cc2c(F)c(Oc3ncnc4cc(OCCCN5CCCC5)c(OCCCCCCC(=O)NO)cc34)ccc2[nH]1 [Compound 17]
100 to 1000	< 100	< 100	–	–	Cc1cc2c(F)c(Nc3ncnc4cc(OCCCN5CCCC5)c(OCCCCC(=O)NO)cc34)ccc2[nH]1 [Compound 18, 5-(4-(4-fluoro-2-methyl-1H-indol-5-ylamino)-7-(3-(pyrrolidin-1-yl)propoxy)quinazolin-6-yloxy)-N-hydroxypentanamide]
< 100	< 100	< 100	–	–	Cc1cc2c(F)c(Nc3ncnc4cc(OCCCN5CCCC5)c(OCCCCCC(=O)NO)cc34)ccc2[nH]1 [Compound 19, 6-(4-(4-Fluoro-2-methyl-1H-indol-5-ylamino)-7-(3-(pyrrolidin-1-yl)propoxy)quinazolin-6-yloxy)-N-hydroxyhexanamide]
1000 to 10000	< 100	< 100	–	–	Cc1cc2c(F)c(Nc3ncnc4cc(OCCCN5CCCC5)c(OCCCCCCC(=O)NO)cc34)ccc2[nH]1 [Compound 20, 7-(4-(4-Fluoro-2-methyl-1H-indol-5-ylamino)-7-(3-(pyrrolidin-1-yl)propoxy)quinazolin-6-yloxy)-N-hydroxyheptanamide]
